In assay [1] the test system is human cancer cell lines. Put plainly: In vitro cytotoxicity study, Summarized results 2 (cell line not given). The format is cell-based. Particulars: Homo sapiens, Table 4, Summarized results 2; cell line not stated. As for the experimental part: (§1) The goal of this protocol is to study the effects of the compounds on the proliferation of various human cancer cell lines in order to evaluate the EC50 and their activity in cellulo.
(§2) The cells are seeded the day before treatment in 96 well plates. Each compound concentration is tested in triplicate. A 96 well plate can contain 3 compounds.
(§3) Stock solutions of the tested compounds are prepared at 10 mM in 100% DMSO and stored at […].
(§4) The analysis is carried out by using the GraphPad PRISM 5.0 software.
(§5) Day 1: the cells are seeded one day before treatment with the compounds in 96 well plates. Cell suspensions for each cancer cell line are prepared with a specific density in a specific culture medium (see preceding table). Next, 100 µL of cell suspension is distributed per well (1×96 well plate per cell line).
(§6) Day 2: 24 hours later, the […] compounds or controls (DMSO) are added to the cells ([…] of a compound solution in its specific medium with a final DMSO concentration of 0.15%).
(§7) Each compound concentration is tested in triplicate (6 concentrations between 10^−9 M and 10^−5 M per compound). The cells are incubated at 37° C. for 72 hours with no new treatment.
(§8) Day 5: 15 minutes before incubation of the cells with MTT (3-[4,5-dimethylthiazol-2-yl]-2,5-diphenyltetrazolium bromide), 10% SDS is added to the control wells to obtain a final concentration of 1%. The positive control of inhibition of proliferation is 1% SDS.
(§9) Once the medium is removed, 100 µL of a solution of MTT in fresh medium is added to each well (10 μL of 10×MTT solution at 5 mg/mL in PBS +[…] of fresh medium) and the plates are incubated for 4 hours at 37° C.
(§10) The MTT reaction is quenched and the medium is homogenized by addition of […] of 10% SDS/0.01 M HCl solution placed in each well. The medium is incubated for 2 hours at 37° C. before measuring its absorbance. Absorbance is measured at 570 nm.

The subject of assay [2] is CFPAC-1. The assay can be described thus: In vitro cytotoxicity study, inhibition of cell growth (MTT). The conditions noted are these: Homo sapiens, CFPAC-1, pancreas, 72 hours. The assay is classed as cell-based. As for the experimental part:
as §1, §2
(§11) Cell suspensions for each cancer cell line are prepared in culture medium with a specific density of the specific cell (see the following table). Then, 100 µL of cell suspension is spread per well (plate per one cell line).
as §3, §4, §5, §6, §7, §8, §9, §10

Assay [3] relates to BxPC3. Described as above. The assay is classed as cell-based. Particulars: Homo sapiens, BXPC-3, BxPC3, pancreas, 72 hours. As for the experimental part: as §1, §2, §11, §3, §4, §5, §6, §7, §8, §9, §10
The subject of assay [4] is T-47D. The assay is described as above. The assay is classed as cell-based. Particulars: Homo sapiens, T47D, breast, 72 hours. As for the experimental part:
as §1, §2, §11, §3, §4, §5, §6, §7, §8, §9, §10

In assay [5] the test system is LoVo. The assay is described as above. Particulars: Homo sapiens, colon, 72 hours. The assay is classed as cell-based. As for the experimental part:
as §1, §2, §11, §3, §4, §5, §6, §7, §8, §9, §10

The test system of assay [6] is PC-3. Described as above. The format is cell-based. Particulars: Homo sapiens, PC-3, prostate, 72 hours. Here is the method: as §1, §2, §11, §3, §4, §5, §6, §7, §8, §9, §10
Assay [7] relates to IPC298. The description is as above. The format is cell-based. Particulars: Homo sapiens, IPC-298, IPC298, melanoma, 72 hours. Here is the method: as §1, §2, §11, §3, §4, §5, §6, §7, §8, §9, §10
Assay [8] concerns AsPC-1. The description is as above. The conditions noted are these: Homo sapiens, ASPC1, AsPC-1, pancreas, 72 hours. The assay is classed as cell-based. Here is the method: as §1, §2, §11, §3, §4, §5, §6, §7, §8, §9, §10
Assay [9] deals with A375. The assay is described as above. The assay is classed as cell-based. The conditions noted are these: Homo sapiens, A-375, A375, melanoma, 72 hours. Here is the method: as §1, §2, §11, §3, §4, §5, §6, §7, §8, §9, §10
The subject of assay [10] is A2058. The description is as above. The assay is classed as cell-based. Particulars: Homo sapiens, A2058, melanoma, 72 hours. Here is the method:
as §1, §2, §11, §3, §4, §5, §6, §7, §8, §9, §10

In assay [11] the test system is HepG2. The description is as above. The assay is classed as cell-based. The conditions noted are these: Homo sapiens, HepG2, liver, 72 hours. Here is the method: as §1, §2, §11, §3, §4, §5, §6, §7, §8, §9, §10
Assay [12] has as its system PF382. The assay is described as above. Particulars: Homo sapiens, PF-382, PF382, lymphoid, 72 hours. The assay is classed as cell-based. Here is the method:
as §1, §2, §11, §3, §4, §5, §6, §7, §8, §9, §10

Assay [13] relates to MEWO. Described as above. The assay is classed as cell-based. The conditions noted are these: Homo sapiens, melanoma, 72 hours. Here is the method: as §1, §2, §11, §3, §4, §5, §6, §7, §8, §9, §10
Assay [14] deals with Capan-1. Described as above. The format is cell-based. The conditions noted are these: Homo sapiens, Capan-1, pancreas, 72 hours. As for the experimental part:
as §1, §2, §11, §3, §4, §5, §6, §7, §8, §9, §10

In assay [15] the test system is Calu-1. The assay is described as above. The assay is classed as cell-based. The conditions noted are these: Homo sapiens, Calu-1, lung, 72 hours. Here is the method: as §1, §2, §11, §3, §4, §5, §6, §7, §8, §9, §10
The subject of assay [16] is COLO-205. Described as above. The assay is classed as cell-based. The conditions noted are these: Homo sapiens, COLO-205, colon, 72 hours. Here is the method: as §1, §2, §11, §3, §4, §5, §6, §7, §8, §9, §10
Assay [17] concerns the target T1, purified tubulin (Sus scrofa, UniProt P02550+P02554).
T1 construct: Tubulin is prepared from pig brain; from tissue; host or cells: pig brain
Put plainly: Effect on the polymerization of purified tubulin (turbidimetry at 350 nm). The assay is classed as biochemical, pig. The conditions noted are these: 2.4 μM tubulin, 37° C. Here is the method:
FIG. 1. Study of the innovative effect of compounds of the selection patent on the polymerization of purified tubulin. This is a comparative study of the effect on the polymerization of purified tubulin by compounds of the selection patent compared to that of the compounds of the patent FR 2,921,927. Polymerized tubulin absorbs at 350 nm.
Tubulin is prepared from pig brain according to the purification process described by Williams and Lee (1982). Tubulin polymerization is monitored by turbidimetry at 350 nm with an MC2 spectrophotometer (Safas, Monaco) equipped with a heat-jacketed cuvette holder. The reaction mixture was prepared at 0° C., and contains PEM buffer, 25% glycerol (v/v), 1 mM GTP, and 2.4 μM tubulin. The GTP and the tubulin are added at the last minute. […] The same volume of DMSO alone was used as a negative control. The final volume of the sample is […]. The reaction is initiated by placing the cuvette in the cell compartment of the spectrophotometer thermostated at 37° C. Ice is added 45 minutes later to launch depolymerization in order to confirm the specificity of the signal.

T1 sequence (P02550 whole entry): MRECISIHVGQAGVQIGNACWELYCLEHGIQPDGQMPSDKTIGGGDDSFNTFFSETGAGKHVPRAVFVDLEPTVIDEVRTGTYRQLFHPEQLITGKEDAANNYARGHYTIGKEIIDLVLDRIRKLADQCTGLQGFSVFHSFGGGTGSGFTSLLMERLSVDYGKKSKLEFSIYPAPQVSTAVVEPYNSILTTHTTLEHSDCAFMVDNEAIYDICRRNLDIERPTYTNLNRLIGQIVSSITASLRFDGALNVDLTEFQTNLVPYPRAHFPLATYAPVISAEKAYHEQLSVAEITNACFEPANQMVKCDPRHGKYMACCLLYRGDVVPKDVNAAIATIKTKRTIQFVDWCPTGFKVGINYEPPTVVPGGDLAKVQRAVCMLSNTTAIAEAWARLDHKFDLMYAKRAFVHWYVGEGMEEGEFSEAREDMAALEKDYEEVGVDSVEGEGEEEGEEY
T1 sequence (P02554 whole entry): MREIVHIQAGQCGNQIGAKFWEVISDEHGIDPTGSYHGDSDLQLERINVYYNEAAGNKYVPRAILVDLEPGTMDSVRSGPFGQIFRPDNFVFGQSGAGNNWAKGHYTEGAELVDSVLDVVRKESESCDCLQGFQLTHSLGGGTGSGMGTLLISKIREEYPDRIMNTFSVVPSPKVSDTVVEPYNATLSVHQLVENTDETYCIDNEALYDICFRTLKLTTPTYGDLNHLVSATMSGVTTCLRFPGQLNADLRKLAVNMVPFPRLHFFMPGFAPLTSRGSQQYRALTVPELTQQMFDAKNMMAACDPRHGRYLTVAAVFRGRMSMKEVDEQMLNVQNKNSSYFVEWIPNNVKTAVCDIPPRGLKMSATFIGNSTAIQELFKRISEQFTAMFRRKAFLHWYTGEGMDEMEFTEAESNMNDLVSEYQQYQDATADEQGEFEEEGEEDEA

For orientation: IC50 means the concentration needed to halve the response being measured. Read a low IC50 as greater potency in that assay. What is called EC50 is the concentration needed to bring the measured effect to its halfway point. Low values mean higher potency in that assay, high ones lower potency in that assay. In assay [1], `CNc1nc2ccccc2n2c(-c3ccc(O)c(O)c3)cnc12` [EAPB 02303, 1-(3,4-Dihydroxyphenyl)-N-methylimidazo[1,2-a]quinoxalin-4-amine] yielded a 50% inhibitory concentration (IC50) of less than 3 nM. Also, the EC50 in assay [2] came to 12 nM; in [3] it was 11 nM; in [4] it was 13 nM; in assay [5] it was 45 nM; in assay [6] it was 12 nM; in assay [7], 40 nM. The EC50 in assay [8] was found to be 957 nM; in [9], 10 nM; in assay [10], 4 nM; in [11] it was 247 nM; in [12] it was 7 nM; in [13], 3 nM. The values for the EC50 in assay [14], in assay [15] and in assay [16] were 154 nM, 4 nM and 38 nM, respectively. Besides, in assay [17], the “Effect on polymerization of purified tubulin (absorbance level at 350 nm)” value is given as “leaves it unchanged”.

The record behind these values is patent US10689384B2, “Imidazo[1,2-a]quinoxalines and derivatives thereof for the treatment of cancer” (Universite de Montpellier, priority 2014, dated 2020).
